These results are taken from patent US12677832B2, “Oxadiazole compounds for controlling or preventing phytopathogenic fungi” (PI INDUSTRIES LTD., priority 2019, dated 2026).

This test concerns Phakopsora pachyrhizi. Nature of the test: Phakopsora pachyrhizi Test in Soybean (preventive spray). The test is classed as in vivo. The conditions noted are these: preventive spray on Soybean plants, inoculated one day after treatment, disease severity vs untreated control. Here is the method:
Example 7: Phakopsora pachyrhizi Test in Soybean Compounds were dissolved in 2% dimethyl sulfoxide/acetone and then mixed with water containing an emulsifier to a calibrated spray volume of 50 mL. This 50 mL spray solution was poured into spray bottles for further applications. To test the preventive activity of compounds, healthy young Soybean plants, raised in the greenhouse, were sprayed with the active compound preparation at the stated application rates inside the spray cabinets using hollow cone nozzles. One day after treatment, the plants were inoculated with a spore suspension containing 2×10^5Phakopsora pachyrhizi conidia. The inoculated plants were then kept in a greenhouse chamber at 22-24° C. temperature and 80-90% relative humidity for disease expression. A visual assessment of the compound's performance was carried out by rating the disease severity (0-100% scale) on treated plants 3, 7, 10 and 15 days after application. Efficacy (% control) of the compounds was calculated by comparing the disease rating in the treatment with the one of the untreated control. The sprayed plants were also assessed for plant compatibility by recording symptoms like necrosis, chlorosis and stunting.

Usually pest or weed control stands for the degree to which the test organism was suppressed or injured, in per cent. Consider `O=C(CSc1ccccc1F)c1ccc(-c2noc(C(F)(F)F)n2)cc1` [Compound 65, 2-((2-fluorophenyl)thio)-1-(4-(5-(trifluoromethyl)-1,2,4-oxadiazol-3-yl)phenyl)ethan-1-one], for which the pest or weed control at 500 ppm was not below 70%.
`Cn1ccc(OCC(=O)c2ccc(-c3noc(C(F)(F)F)n3)cc2)n1` [Compound 50, 2-((1-methyl-1H-pyrazol-3-yl)oxy)-1-(4-(5-(trifluoromethyl)-1,2,4-oxadiazol-3-yl)phenyl)ethan-1-one] registered a pest or weed control at 500 ppm not below 70%.
To `O=C(CN1CCOCC1)c1ccc(-c2noc(C(F)(F)F)n2)cc1` [Compound 136, 2-morpholino-1-(4-(5-(trifluoromethyl)-1,2,4-oxadiazol-3-yl)phenyl)ethan-1-one] belongs not below 70%; to `Cc1cccc(SCC(=O)c2ccc(-c3noc(C(F)(F)F)n3)cc2)c1` [Compound 67, 2-(m-tolylthio)-1-(4-(5-(trifluoromethyl)-1,2,4-oxadiazol-3-yl)phenyl)ethan-1-one], not below 70%.
To `O=C(COc1ccc(Br)c(F)c1)c1ccc(-c2noc(C(F)(F)F)n2)cc1` [Compound 12, 2-(4-bromo-3-fluorophenoxy)-1-(4-(5-(trifluoromethyl)-1,2,4-oxadiazol-3-yl)phenyl)ethan-1-one] belongs not below 70%.
Molecule `O=C(CSC1CCCC1)c1ccc(-c2noc(C(F)(F)F)n2)cc1` [Compound 24, 2-(cyclopentylthio)-1-(4-(5-(trifluoromethyl)-1,2,4-oxadiazol-3-yl)phenyl)ethan-1-one] showed a pest or weed control at 500 ppm not below 70%.
The figure for `O=C(COc1cc(F)cc(Cl)c1)c1ccc(-c2noc(C(F)(F)F)n2)cc1` [Compound 42, 2-(3-chloro-5-fluorophenoxy)-1-(4-(5-(trifluoromethyl)-1,2,4-oxadiazol-3-yl)phenyl)ethan-1-one] is not below 70%; for `O=C(CSc1nc2ccccc2o1)c1ccc(-c2noc(C(F)(F)F)n2)cc1` [Compound 25, 2-(benzo[d]oxazol-2-ylthio)-1-(4-(5-(trifluoromethyl)-1,2,4-oxadiazol-3-yl)phenyl)ethan-1-one] it is not below 70%.
As to `O=C(COc1ccc(F)cc1)c1ccc(-c2noc(C(F)(F)F)n2)cc1` [Compound 4, 2-(4-fluorophenoxy)-1-(4-(5-(trifluoromethyl)-1,2,4-oxadiazol-3-yl)phenyl)ethan-1-one], the pest or weed control at 500 ppm was not below 70%.
For the molecule `CC(SCC(=O)c1ccc(-c2noc(C(F)(F)F)n2)cc1)c1ccccc1` (centres unmarked) [Compound 58, 2-((1-phenylethyl)thio)-1-(4-(5-(trifluoromethyl)-1,2,4-oxadiazol-3-yl)phenyl)ethan-1-one], the pest or weed control at 500 ppm was not below 70%.
As for `O=C(COc1ccccc1F)c1ccc(-c2noc(C(F)(F)F)n2)cc1` [Compound 1, 2-(2-fluorophenoxy)-1-(4-(5-(trifluoromethyl)-1,2,4-oxadiazol-3-yl)phenyl)ethan-1-one], the pest or weed control at 500 ppm is not below 70%.
The molecule `Cc1ccc(OCC(=O)c2ccc(-c3noc(C(F)(F)F)n3)cc2)cc1` [Compound 34, 2-(p-tolyloxy)-1-(4-(5-(trifluoromethyl)-1,2,4-oxadiazol-3-yl)phenyl)ethan-1-one] returned a pest or weed control at 500 ppm not below 70%.
`O=C(CSc1ccccc1)c1ccc(-c2noc(C(F)(F)F)n2)cc1` [Compound 60, 2-(phenylthio)-1-(4-(5-(trifluoromethyl)-1,2,4-oxadiazol-3-yl)phenyl)ethan-1-one] came in with a pest or weed control at 500 ppm not below 70%.
On to `O=C(COc1ccc(Cl)c(C(F)(F)F)c1)c1ccc(-c2noc(C(F)(F)F)n2)cc1` [Compound 9, 2-(4-chloro-3-(trifluoromethyl)phenoxy)-1-(4-(5-(trifluoromethyl)-1,2,4-oxadiazol-3-yl)phenyl)ethan-1-one], for which the pest or weed control at 500 ppm was not below 70%.
